In article PMC7844276, “Multi-functionality of a tryptophan residue conserved in substrate-binding groove of GH19 chitinases” (Scientific Reports, 2021):
pKd: −log10 of the molar value.

Experiments:
Assay type in all cases: binding
BcChi-A [1] = molecular target: T1, BcChi-A (Gemmabryum coronatum, UniProt A9ZSX9, W126F); assay: 1H-15N HSQC NMR titration, Asn20 chemical shift; details: 50 mM sodium acetate pH 5.0, 90% H2O/10% D2O, 300 K; 0.2 mM 15N protein
T1 construct: gene bcchiA; recombinant, pET-22b in E. coli BL21(DE3); purified from cell lysate by acid treatment, Q-Sepharose, Sephacryl S-100; no tag mentioned; 15N-labelled for NMR; catalytic domain, loopless GH19
T1 sequence (A9ZSX9 entry or part of it W126F): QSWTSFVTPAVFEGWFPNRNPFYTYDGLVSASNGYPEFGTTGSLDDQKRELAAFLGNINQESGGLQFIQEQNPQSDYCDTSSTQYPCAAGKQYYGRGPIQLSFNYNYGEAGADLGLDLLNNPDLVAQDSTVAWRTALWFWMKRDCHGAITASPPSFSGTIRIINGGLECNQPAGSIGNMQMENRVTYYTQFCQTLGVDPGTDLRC
Text: (§1) 1H-15N HSQC NMR titration, Asn20 chemical shift on BcChi-A

BcChi-A [2] = molecular target: T2, BcChi-A (Gemmabryum coronatum, UniProt A9ZSX9); assay: 1H-15N HSQC NMR titration, Asn20 chemical shift; details: 50 mM sodium acetate pH 5.0, 90% H2O/10% D2O, 300 K; 0.2 mM 15N protein
T2 construct: gene bcchiA; recombinant, pET-22b in E. coli BL21(DE3); purified from cell lysate by acid treatment, Q-Sepharose, Sephacryl S-100; no tag mentioned; 15N-labelled for NMR; catalytic domain, loopless GH19
T2 sequence (A9ZSX9 entry or part of it): as the sequence (A9ZSX9 entry or part of it W126F) above, with F103W counted along it
Text: as §1

BcChi-A [3] = molecular target: T3, BcChi-A (Gemmabryum coronatum, UniProt A9ZSX9, W126A); assay: 1H-15N HSQC NMR titration, Asn20 chemical shift; details: 50 mM sodium acetate pH 5.0, 90% H2O/10% D2O, 300 K; 0.2 mM 15N protein
T3 construct: gene bcchiA; recombinant, pET-22b in E. coli BL21(DE3); purified from cell lysate by acid treatment, Q-Sepharose, Sephacryl S-100; no tag mentioned; 15N-labelled for NMR; catalytic domain, loopless GH19
T3 sequence (A9ZSX9 entry or part of it W126A): as the sequence (A9ZSX9 entry or part of it W126F) above, with F103A counted along it
Text: as §1

BcChi-A [4] = molecular target: T4, BcChi-A (Gemmabryum coronatum, UniProt A9ZSX9, E84Q/W126F); assay: 1H-15N HSQC NMR titration, Asn20 bound-state intensity (slow exchange); details: 50 mM sodium acetate pH 5.0, 90% H2O/10% D2O, 300 K; 0.2 mM 15N protein; catalytically inactive mutant
T4 construct: gene bcchiA; recombinant, pET-22b in E. coli BL21(DE3); purified from cell lysate by acid treatment, Q-Sepharose, Sephacryl S-100; no tag mentioned; 15N-labelled for NMR; catalytic domain, loopless GH19
T4 sequence (A9ZSX9 entry or part of it E84Q/W126F): as the sequence (A9ZSX9 entry or part of it W126F) above, with E61Q counted along it
Text: (§2) 1H-15N HSQC NMR titration, Asn20 bound-state intensity (slow exchange) on BcChi-A

BcChi-A [5] = molecular target: T5, BcChi-A (Gemmabryum coronatum, UniProt A9ZSX9, E84Q/W126A); assay: as above; details: 50 mM sodium acetate pH 5.0, 90% H2O/10% D2O, 300 K; 0.2 mM 15N protein; catalytically inactive mutant
T5 construct: gene bcchiA; recombinant, pET-22b in E. coli BL21(DE3); purified from cell lysate by acid treatment, Q-Sepharose, Sephacryl S-100; no tag mentioned; 15N-labelled for NMR; catalytic domain, loopless GH19
T5 sequence (A9ZSX9 entry or part of it E84Q/W126A): as the sequence (A9ZSX9 entry or part of it W126F) above, with E61Q, F103A counted along it
Text: as §2

BcChi-A [6] = molecular target: T6, BcChi-A (Gemmabryum coronatum, UniProt A9ZSX9, E84Q); assay: as above; details: 50 mM sodium acetate pH 5.0, 90% H2O/10% D2O, 300 K; 0.2 mM 15N protein; catalytically inactive mutant
T6 construct: gene bcchiA; recombinant, pET-22b in E. coli BL21(DE3); purified from cell lysate by acid treatment, Q-Sepharose, Sephacryl S-100; no tag mentioned; 15N-labelled for NMR; catalytic domain, loopless GH19
T6 sequence (A9ZSX9 entry or part of it E84Q): as the sequence (A9ZSX9 entry or part of it W126F) above, with E61Q, F103W counted along it
Text: as §2

| pKd (BcChi-A [1]) | pKd (BcChi-A [2]) | pKd (BcChi-A [3]) | pKd (BcChi-A [4]) | pKd (BcChi-A [5]) | pKd (BcChi-A [6]) | Compound |
| --- | --- | --- | --- | --- | --- | --- |
| 1.66 | 2.38 | 1.62 |  |  |  | CC(=O)N[C@H]1[C@H](O[C@H]2[C@H](O)[C@@H](NC(C)=O)C(O)O[C@@H]2CO)O[C@H](CO)[C@@H](O)[C@@H]1O (stereo partly drawn) [(GlcNAc)2] |
|  |  |  | 3.00 | 3.70 | 4.85 | CC(=O)N[C@H]1[C@H](O[C@H]2[C@H](O)[C@@H](NC(C)=O)[C@H](O[C@H]3[C@H](O)[C@@H](NC(C)=O)C(O)O[C@@H]3CO)O[C@@H]2CO)O[C@H](CO)[C@@H](O[C@@H]2O[C@H](CO)[C@@H](O[C@@H]3O[C@H](CO)[C@@H](O[C@@H]4O[C@H](CO)[C@@H](O)[C@H](O)[C@H]4NC(C)=O)[C@H](O)[C@H]3NC(C)=O)[C@H](O)[C@H]2NC(C)=O)[C@@H]1O (stereo partly drawn) [(GlcNAc)6] |
